According to PubChem BioAssay AID248 (DTP/NCI, 2004):
“And” between values parts separate entries of the source, which are not always exact repeats. Equal values may be shown once. Toxic doses and inconclusive results are not listed. Rule as the data show it: active = T/C of 150% or more; inactive = T/C below 125%.

Test system: L1210 leukemia ip in BDF1 mice, survival T/C
Assay: NCI In Vivo Anticancer Drug Screen. Data for tumor model L1210 Leukemia (intraperitoneal) in B6D2F1 (BDF1) mice
Details: endpoint: mean survival time, higher = longer survival
Procedure, shortened: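 Survival endpoint. Drug-treated group vs vehicle group, expressed as T divided by C. Tumor passaged by transplantation.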

[1] = dose: 100.0 mg/kg/injection, schedule: Q01DX001 (ip), vehicle: saline
[2] = dose: 75.0 mg/kg/injection, schedule: Q01DX001 (ip), vehicle: saline
[3] = dose: 100.0 mg/kg/injection, schedule: Q01DX001 (ip), vehicle: saline with Tween-80
[4] = dose: 200.0 mg/kg/injection, schedule: Q01DX001 (ip), vehicle: saline with Tween-80
[5] = dose: 400.0 mg/kg/injection, schedule: Q01DX001 (ip), vehicle: saline with Tween-80
[6] = dose: 50.0 mg/kg/injection, schedule: Q01DX009 (ip), vehicle: Klucel (hydroxypropylcellulose) (HPC)
[7] = dose: 100.0 mg/kg/injection, schedule: Q01DX009 (ip), vehicle: Klucel (hydroxypropylcellulose) (HPC)
[8] = dose: 200.0 mg/kg/injection, schedule: Q01DX009 (ip), vehicle: Klucel (hydroxypropylcellulose) (HPC)
[9] = dose: 100.0 mg/kg/injection, schedule: Q04DX003 (ip), vehicle: Klucel (hydroxypropylcellulose) (HPC)
[10] = dose: 200.0 mg/kg/injection, schedule: Q04DX003 (ip), vehicle: Klucel (hydroxypropylcellulose) (HPC)

Measured: T/C

CN(C)N=Nc1ccccc1[N+](=O)[O-]
inactive: dose: 30.0 mg/kg/injection, schedule: Q01DX009 (ip), vehicle: saline with Tween-80 99 % of control | dose: 50.0 mg/kg/injection, schedule: Q01DX001 (ip), vehicle: saline 103 % of control | dose: 53.0 mg/kg/injection, schedule: Q01DX009 (ip), vehicle: saline with Tween-80 118 % of control | dose: 60.0 mg/kg/injection, schedule: Q01DX009 (ip), vehicle: saline with Tween-80 106 % of control | [1] 101 % of control | dose: 119.0 mg/kg/injection, schedule: Q04DX003 (ip), vehicle: saline 107 % of control | dose: 120.0 mg/kg/injection, schedule: Q01DX009 (ip), vehicle: saline with Tween-80 113 % of control | dose: 178.0 mg/kg/injection, schedule: Q04DX003 (ip), vehicle: saline 118 % of control | dose: 267.0 mg/kg/injection, schedule: Q04DX003 (ip), vehicle: saline 92 % of control

O=C(OCCOc1ccc(Cl)cc1Cl)c1cc(I)cc(I)c1I
inactive: dose: 100.0 mg/kg/injection, schedule: Q04DX002 (ip), vehicle: Klucel (hydroxypropylcellulose) (HPC) 111 % of control | dose: 200.0 mg/kg/injection, schedule: Q04DX002 (ip), vehicle: Klucel (hydroxypropylcellulose) (HPC) 101 % of control | dose: 400.0 mg/kg/injection, schedule: Q04DX002 (ip), vehicle: Klucel (hydroxypropylcellulose) (HPC) 104 % of control

NC(N)=NC(N)=Nc1ccccc1CS
inactive: [2] 101 % of control | dose: 150.0 mg/kg/injection, schedule: Q01DX001 (ip), vehicle: saline 102 % of control

Nc1nccnc1Cl
inactive: dose: 75.0 mg/kg/injection, schedule: Q01DX001 (ip), vehicle: acetone 104 % of control | dose: 150.0 mg/kg/injection, schedule: Q01DX001 (ip), vehicle: acetone 104 % of control | dose: 300.0 mg/kg/injection, schedule: Q01DX001 (ip), vehicle: acetone 96 % of control

Cc1ccc(S(=O)(=O)N(CC(=O)O)Cc2ccccc2)cc1
inactive: dose: 25.0 mg/kg/injection, schedule: Q01DX009 (ip), vehicle: sodium bicarbonate 104 % of control | dose: 50.0 mg/kg/injection, schedule: Q01DX009 (ip), vehicle: sodium bicarbonate 100 % of control | [3] 100 % of control | dose: 100.0 mg/kg/injection, schedule: Q01DX009 (ip), vehicle: saline with Tween-80 104 % of control | dose: 100.0 mg/kg/injection, schedule: Q01DX009 (ip), vehicle: sodium bicarbonate 98 % of control | [4] 97 % of control | dose: 200.0 mg/kg/injection, schedule: Q01DX009 (ip), vehicle: saline with Tween-80 110 % of control | dose: 200.0 mg/kg/injection, schedule: Q01DX009 (ip), vehicle: sodium bicarbonate 98 % of control | [5] 95 % of control | dose: 400.0 mg/kg/injection, schedule: Q01DX009 (ip), vehicle: saline with Tween-80 95 % of control and 112 % of control | dose: 400.0 mg/kg/injection, schedule: Q01DX009 (ip), vehicle: sodium bicarbonate 97 % of control | dose: 800.0 mg/kg/injection, schedule: Q01DX009 (ip), vehicle: saline with Tween-80 92 % of control | dose: 1600.0 mg/kg/injection, schedule: Q01DX009 (ip), vehicle: saline with Tween-80 117 % of control

O=P(NC1CCCCC1)(OCc1ccccc1)N(CCCl)CCCl (stereo unspecified)
inactive: dose: 10.0 mg/kg/injection, schedule: Q01DX Z (ip), vehicle: water 98 % of control | dose: 20.0 mg/kg/injection, schedule: Q01DX Z (ip), vehicle: water 91 % of control | dose: 40.0 mg/kg/injection, schedule: Q01DX Z (ip), vehicle: water 96 % of control | dose: 80.0 mg/kg/injection, schedule: Q01DX009 (ip), vehicle: water 93 % of control | dose: 160.0 mg/kg/injection, schedule: Q01DX009 (ip), vehicle: water 89 % of control

O=C(O)COc1ccc(Cl)cc1Cc1ccccc1
inactive: [3] 98 % of control | [4] 96 % of control | [5] 117 % of control

FC1(F)SC2C3CC(C4CCC=C43)C2C1(F)F (stereo unspecified)
inactive: dose: 0.78 mg/kg/injection, schedule: Q01DX009 (ip), vehicle: Klucel (hydroxypropylcellulose) (HPC) 96 % of control | dose: 1.56 mg/kg/injection, schedule: Q01DX009 (ip), vehicle: Klucel (hydroxypropylcellulose) (HPC) 93 % of control | dose: 1.56 mg/kg/injection, schedule: Q04DX003 (ip), vehicle: Klucel (hydroxypropylcellulose) (HPC) 102 % of control | dose: 3.13 mg/kg/injection, schedule: Q04DX003 (ip), vehicle: Klucel (hydroxypropylcellulose) (HPC) 100 % of control

c1ccc(Cc2ccccn2)nc1
inactive: dose: 100.0 mg/kg/injection, schedule: Q04DX003 (ip), vehicle: saline sonified 110 % of control | dose: 200.0 mg/kg/injection, schedule: Q04DX003 (ip), vehicle: saline sonified 104 % of control | dose: 400.0 mg/kg/injection, schedule: Q04DX003 (ip), vehicle: saline sonified 104 % of control

CCOC(=O)N1C2CCC(C2)N1C(=O)OCC
inactive: [1] 103 % of control | dose: 200.0 mg/kg/injection, schedule: Q01DX001 (ip), vehicle: saline 100 % of control | dose: 400.0 mg/kg/injection, schedule: Q01DX001 (ip), vehicle: saline 103 % of control

CCCCCCCCCC(C)NC(=O)CCl (stereo unspecified)
inactive: [6] 87 % of control | [7] 97 % of control | [8] 90 % of control

COc1ccc2c3c(ccc2c1)C(=O)/C(=C\O)CC3
inactive: dose: 25.0 mg/kg/injection, schedule: Q01DX009 (ip), vehicle: Klucel (hydroxypropylcellulose) (HPC) 92 % of control | dose: 25.0 mg/kg/injection, schedule: Q04DX003 (ip), vehicle: Klucel (hydroxypropylcellulose) (HPC) 100 % of control | [6] 108 % of control | dose: 50.0 mg/kg/injection, schedule: Q04DX003 (ip), vehicle: Klucel (hydroxypropylcellulose) (HPC) 101 % of control | [7] 88 % of control | [9] 100 % of control and 103 % of control | [10] 103 % of control

Cc1cccc(C(=O)NC(=S)Nc2ccccc2)c1
inactive: dose: 5.0 mg/kg/injection, schedule: Q01DX001 (ip), vehicle: saline 97 % of control | dose: 10.0 mg/kg/injection, schedule: Q01DX001 (ip), vehicle: saline 103 % of control | dose: 20.0 mg/kg/injection, schedule: Q01DX001 (ip), vehicle: saline 97 % of control

CC/C(C)=N\NC(=O)c1cccnc1
inactive: dose: 100.0 mg/kg/injection, schedule: Q01DX009 (ip), vehicle: saline 110 % of control | dose: 200.0 mg/kg/injection, schedule: Q01DX009 (ip), vehicle: saline 110 % of control

COc1ccc(C2CCC(=O)CC2C(=O)O)cc1 (stereo unspecified)
inactive: [7] 92 % of control | [9] 110 % of control | [8] 97 % of control | [10] 98 % of control | dose: 400.0 mg/kg/injection, schedule: Q01DX009 (ip), vehicle: Klucel (hydroxypropylcellulose) (HPC) 103 % of control | dose: 400.0 mg/kg/injection, schedule: Q04DX003 (ip), vehicle: Klucel (hydroxypropylcellulose) (HPC) 93 % of control

Cc1ccnc2c(N)cccc12
inactive: [2] 98 % of control

CCOC(=O)C(O)(C(=O)OCC)c1ccccc1
inactive: dose: 100.0 mg/kg/injection, schedule: Q01DX001 (ip), vehicle: other 97 % of control | dose: 200.0 mg/kg/injection, schedule: Q01DX001 (ip), vehicle: other 102 % of control | dose: 400.0 mg/kg/injection, schedule: Q01DX001 (ip), vehicle: other 103 % of control

O=C(/C=C/c1ccccc1)CC(O)(C(F)(F)F)C(F)(F)F
inactive: dose: 100.0 mg/kg/injection, schedule: Q04DX003 (sc), vehicle: olive oil, sesame oil, peanut oil 113 % of control | dose: 200.0 mg/kg/injection, schedule: Q04DX003 (sc), vehicle: olive oil, sesame oil, peanut oil 113 % of control | dose: 400.0 mg/kg/injection, schedule: Q04DX003 (sc), vehicle: olive oil, sesame oil, peanut oil 108 % of control
